Data published in US9974832B2, “Therapeutic effects of bryostatins, bryologs, and other related substances on head trauma-induced memory impairment and brain injury” (Cognitive Research Enterprises, Inc., priority 2007, dated 2018).

Tests used:
[1] = system: tumor promotion; details: cited from earlier work
[2] = system: head trauma-induced brain injury and memory impairment; test: minimal traumatic brain injury in mice, Morris Water Maze; format: in vivo; details: treatment started one hour after head trauma
Experimental: Minimal traumatic brain injury (TBI) was produced in mice by a concussive event using a 30 g mass. One hour post trauma, the mice received 20 or 30 μg bryostatin per kg doses by intraperitoneal injection. The injections were repeated twice weekly for a total of 5 treatments. The effects on learning and memory of bryostatin treatment in treated animals was tested in the Morris Water Maze.
The platform was removed and the animals were tested for how long they searched the correct quadrant versus the incorrect quadrants. In the passive avoidance procedure the animal remembers the distinctive environment in which a mild electric shock is delivered and avoids it on a second occasion.
Minimal traumatic brain injury (TBI) was produced in mice by a concussive event using a 30 g mass. One hour post trauma, the mice received 30 μg bryostatin per kg doses by intraperitoneal injection. The injections were repeated twice weekly for a total of 5 treatments. The escape latencies in a Morris Water Maze of mice treated with bryostatin after minimal TBI were compared to animals with minimal TBI, control animals receiving no TBI or bryostatin, and animals receiving bryostatin only.
Minimal traumatic brain injury (TBI) was produced in mice by a concussive event using a 30 g mass. One hour post trauma, the mice received 20 μg bryostatin per kg doses by intraperitoneal injection. […]

[3] = in vivo; cited from earlier work
[4] = target: T1, PKCϵ (Homo sapiens, UniProt Q02156); details: cited from earlier work
T1 sequence (Q02156 1-737): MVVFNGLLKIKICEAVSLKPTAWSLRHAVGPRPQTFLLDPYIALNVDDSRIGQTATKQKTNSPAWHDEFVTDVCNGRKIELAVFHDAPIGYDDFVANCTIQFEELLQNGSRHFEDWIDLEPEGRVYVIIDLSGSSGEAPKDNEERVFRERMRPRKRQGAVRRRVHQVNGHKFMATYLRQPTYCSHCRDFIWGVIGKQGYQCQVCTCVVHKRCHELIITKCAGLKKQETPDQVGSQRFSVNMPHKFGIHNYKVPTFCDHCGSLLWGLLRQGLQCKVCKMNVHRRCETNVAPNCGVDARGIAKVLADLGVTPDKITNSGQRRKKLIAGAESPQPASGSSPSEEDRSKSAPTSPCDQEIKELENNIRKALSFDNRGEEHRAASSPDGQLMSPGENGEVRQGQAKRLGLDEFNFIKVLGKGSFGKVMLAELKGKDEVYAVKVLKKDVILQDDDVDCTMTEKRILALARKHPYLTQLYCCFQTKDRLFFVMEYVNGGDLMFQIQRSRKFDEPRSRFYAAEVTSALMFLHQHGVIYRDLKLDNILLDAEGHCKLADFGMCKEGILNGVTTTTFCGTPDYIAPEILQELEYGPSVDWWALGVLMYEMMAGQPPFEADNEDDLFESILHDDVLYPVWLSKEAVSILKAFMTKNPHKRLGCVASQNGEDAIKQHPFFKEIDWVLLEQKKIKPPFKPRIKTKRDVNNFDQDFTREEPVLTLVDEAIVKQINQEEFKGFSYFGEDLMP

[5] = system: cyclin dependent kinase 2 (Cdk2); details: at 5 ng/ml; cited from earlier work
[6] = system: PKC; details: K562 cells; cited from earlier work
[7] = system: murine leukemias and solid tumors; details: cited from earlier work
[8] = system: squamous cell carcinoma and melanoma; details: used topically; cited from earlier work
[9] = system: NCI 60 cell line screen; details: cited from earlier work
[10] = (−)-enantiomer; cited from earlier work
[11] = target: PKC; details: read-out: affinity for PKC, A-ring bryologs; cited from earlier work
[12] = compared with phorbol; cited from earlier work

For `CCCC=CC=CC(=O)OC1C(=CC(=O)OC)CC2CC(C(C)O)OC(=O)CC(O)CC3CC(OC(C)=O)C(C)(C)C(O)(CC4CC(=CC(=O)OC)CC(C=CC(C)(C)C1(O)O2)O4)O3` (stereo not drawn) [Bryostatin 1, bryostatin-1], the tumor promotion activity [1] is listed as “devoid of tumor promotion activity”, the “therapeutic effect on brain injury and memory impairment induced with head trauma” value [2] is listed as “therapeutic value against brain injury and memory impairment” and the “main adverse reaction in humans” value [3] is listed as “myalgia”. For the same compound, the “tolerability of doses in humans” value [3] was “well tolerated in humans”.

In the case of `CCCCCC1CC1CC1CC1CCCCCCCC(=O)O` (stereo not drawn) [DCP-LA, 2-[(2-pentylcyclopropyl)methyl]cyclopropaneoctanoic acid], the “concentration of maximal effect” value [4] is listed as 100 nM.

In the case of `C=C(C)[C@]12C[C@@H](COC(=O)c3ccccc3)[C@@]34OC5(O[C@@H]1[C@@H]3C1O[C@]1(CO)[C@@H](O)[C@@]1(O)[C@H]4[C@@H](C(C)CCCCCC[C@@H]5O)C(C)[C@@H]1OC(=O)c1ccccc1)O2` (stereo partly drawn) [Gnidimacrin], the “inhibition of Cdk2” value [5] is listed as 100%, the “concentration at which it acts as a PKC activator” value [6] is listed as “≈ 3 nM” and the “concentrations with potent antitumor activity” value [7] is listed as 0.1 to 1 nM.

For `C/C=C(/C)C(=O)O[C@H]1C(C)=C[C@]23C(=O)[C@@H](C=C(CO)[C@@H](O)[C@]12O)[C@H]1[C@@H](C[C@H]3C)C1(C)C` [Ingenol-3-angelate], the antitumor activity [8] is given as “possesses antitumor activity”.

In the case of `CC1=CC[C@H](C)C(C)(C)[C@@H]1/C=C/C(C)=C/CC[C@@]1(CO)[C@H](CCCO)/C(=C(/C)C=O)CC[C@]1(C)O` [Iripallidal], the “GI50 (concentration required to inhibit growth by 50%)” value [9] is given as “micromolar to nanomolar range”.

For `CCCCCCCCc1ccc2c3c(c[nH]c13)C[C@@H](CO)NC(=O)[C@H](C(C)C)N2C` [Octylindolactam V], the metabolic stability [10] is given as “greater metabolic stability”.

For `CCCCCCCC(=O)OC1C(=CC(=O)OC)CC2CC(CO)OC(=O)CC(O)CCOC(C(C)(C)C)CC3CCOC(C=CC(C)(C)C1(O)O2)O3` (stereo not drawn) [bryolog 3], the Ki [11] is listed as 6.5 nM.

In the case of `CCCCCCCC(=O)OC1C(=CC(=O)OC)CC2CC(CO)OC(=O)CC(O)CCOC(c3ccccc3)CC3CCOC(C=CC(C)(C)C1(O)O2)O3` (stereo not drawn) [bryolog 4], the Ki [11] is given as 2.3 nM.

For `CCCCCCCC(=O)OC1C(=CC(=O)OC)CC2CC(CO)OC(=O)CC(O)CCOC(CCCc3ccc(Br)cc3)CC3CCOC(C=CC(C)(C)C1(O)O2)O3` (stereo not drawn) [bryolog 5], the Ki [11] is given as 1.9 nM.

In the case of Ingenol, the toxicity [12] is given as “much less toxicity”.
